The values below come from publication PMC7140522, “The Pyrazolo[3,4-d]pyrimidine Derivative, SCO-201, Reverses Multidrug Resistance Mediated by ABCG2/BCRP” (Cells, 2020).

The structures appear in SMILES notation. Read-outs that look alike come from different tables or passages of the source. Bounds are passed on as bounds.

In data set [1] the target is CYP1A (Homo sapiens, UniProt P05177).
Details of data set [2]: method as in PMID 26260222. Particulars: cited from earlier work.
Data set [3] deals with T1, BCRP (Homo sapiens, UniProt Q9UNQ0).
T1 sequence (Q9UNQ0 1-655): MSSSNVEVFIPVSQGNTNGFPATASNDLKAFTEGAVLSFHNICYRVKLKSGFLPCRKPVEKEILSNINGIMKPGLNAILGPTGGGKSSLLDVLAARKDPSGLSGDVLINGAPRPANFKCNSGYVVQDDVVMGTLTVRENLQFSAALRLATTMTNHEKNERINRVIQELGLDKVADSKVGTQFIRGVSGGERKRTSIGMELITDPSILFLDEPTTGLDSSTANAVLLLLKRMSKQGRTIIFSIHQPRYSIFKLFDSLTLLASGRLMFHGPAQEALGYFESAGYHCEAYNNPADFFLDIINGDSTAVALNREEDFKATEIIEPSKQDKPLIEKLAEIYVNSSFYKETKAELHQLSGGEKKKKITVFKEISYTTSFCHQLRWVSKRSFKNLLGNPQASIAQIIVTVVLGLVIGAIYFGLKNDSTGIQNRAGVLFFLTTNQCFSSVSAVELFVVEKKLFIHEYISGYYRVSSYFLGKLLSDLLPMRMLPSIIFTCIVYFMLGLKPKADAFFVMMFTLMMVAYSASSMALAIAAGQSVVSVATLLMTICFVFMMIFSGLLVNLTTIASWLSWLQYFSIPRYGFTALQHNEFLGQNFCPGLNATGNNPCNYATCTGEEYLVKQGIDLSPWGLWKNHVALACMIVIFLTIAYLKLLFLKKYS
Put plainly: […] ATPase assay with recombinant BCRP membranes. Type of data set: biochemical. More on the design: purchased Solvo Biotechnology (via Sigma-Aldrich/Merck) SB-BCRP-M. How it is done: After incubation with test compounds, MgATP was added to each well and incubated at 37 °C for 10 min. The ATPase reaction was stopped by the addition of 1x Developer solution at room temperature (RT). Two minutes after, 100 µL Blocker solution was added and the plate was incubated for 30 min at 37 °C for 30 min. The optical densities were measured at 620 nm using a PowerWave X Microplate spectrophotometer (BioTek, Bad Friedrichshall, Germany).

Data set [4] has as its system HT29SN-38-RES cells. Put plainly: MDR reversal analysis with MTT assay, HT29SN-38-RES. Conditions: 72 hours, oxaliplatin is not a substrate for BCRP. Type of data set: cell-based, human. As for the experimental part:
Control conditions consisted of full growth medium. All treatments were performed in triplicate.

Data set [5] has as its system CYP1A, CYP2B6, CYP2C8, CYP2C9, CYP2C19, CYP2D6, CYP3A. Put plainly: in vitro. Conditions: both, human, pooled human liver microsomes, pH 7.4.
Method: The reaction was initiated by adding a Nicotinamide adenine dinucleotide phosphate (NADPH)-generating system. The reaction was allowed for 10 min and stopped by transferring the reaction mixture to acetonitrile/methanol. Samples were mixed and centrifuged. Supernatants were used for HPLC-MS/MS of the respective metabolite.
Data analysis: Peak areas corresponding to the metabolite were recorded. The percent of control activity was calculated by comparing the peak area in the presence of the test compound to the control samples containing the same solvent. […] The IC50 value (concentration causing a half-maximal inhibition of the control value) was determined by non-linear regression analysis of the concentration–response curve using the Hill equation.
Data set [6] concerns CYP3A. In words: CYP induction in human hepatocytes, CYP3A mRNA. Type of data set: in vitro ADME. Conditions: plated human hepatocytes.

CYP1A, sequence (P05177 whole entry): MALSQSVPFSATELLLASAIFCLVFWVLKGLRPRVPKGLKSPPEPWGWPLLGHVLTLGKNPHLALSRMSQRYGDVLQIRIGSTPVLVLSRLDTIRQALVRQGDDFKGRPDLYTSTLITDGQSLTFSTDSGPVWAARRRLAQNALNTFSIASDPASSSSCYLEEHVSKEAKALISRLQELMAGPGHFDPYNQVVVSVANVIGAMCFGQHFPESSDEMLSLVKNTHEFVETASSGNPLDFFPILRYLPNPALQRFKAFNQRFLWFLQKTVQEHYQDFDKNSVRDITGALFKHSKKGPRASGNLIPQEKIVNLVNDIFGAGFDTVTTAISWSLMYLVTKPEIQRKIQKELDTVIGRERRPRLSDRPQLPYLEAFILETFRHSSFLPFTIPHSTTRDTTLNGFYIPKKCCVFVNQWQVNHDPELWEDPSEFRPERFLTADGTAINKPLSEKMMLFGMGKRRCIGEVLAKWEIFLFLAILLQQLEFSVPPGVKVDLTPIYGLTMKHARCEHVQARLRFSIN

For the molecule `Nc1nc(-c2ccccc2)nc2[nH]nc(Nc3ccc(C(F)(F)F)cc3)c12` [SCO-201], in data set [1], the concentration for half-maximal inhibition (IC50) (in general, the midpoint of a concentration-inhibition curve) is more than 100 µM. For the same molecule, the stability in serum result in data set [2] is recorded as “stable in serum”. Further, in data set [3] (SCO-201 added to sulfasalazine-stimulated BCRP), the “ATPase activity of BCRP, sulfasalazine-stimulated” value is listed as “decreased in a dose-dependent manner”. For the same molecule, the “ATPase activity of BCRP, basal” value in data set [3] (in the absence of sulfasalazine) was “decreased dose-dependently”. For the same molecule, the “SN-38-stimulated ATPase activity of BCRP” value in data set [3] (in the presence of 0.5 µM or 1.5 µM SCO-201) is on record as “shifted downwards”. For the same molecule, the “combinatorial effect with oxaliplatin on cell viability” value in data set [4] was “no added effects”. In data set [5], this molecule showed a 50% inhibitory concentration (IC50) at 10 min not below 100 µM. Moreover, the fold induction at 2 days in data set [6] (Donor 1, read-out: Mean Fold Induction of mRNA at 1× 10^−4 M) was 0.25; in data set [6] (Donor 2, read-out: Mean Fold Induction of mRNA at 1× 10^−4 M), 0.25; in data set [6] (Donor 3, read-out: Mean Fold Induction of mRNA at 1× 10^−4 M), 0.32.
